Where two headings read alike, the source gives them in different places.
What was measured:
ICE = molecular target: T1, ICE (Homo sapiens, UniProt P29466); test: Enzyme assay with UV-visible substrate (visible ICE assay, Succinyl-Tyr-Val-Ala-Asp-pNitroanilide); format: biochemical
T1 sequence (P29466 120-297 limits assumed): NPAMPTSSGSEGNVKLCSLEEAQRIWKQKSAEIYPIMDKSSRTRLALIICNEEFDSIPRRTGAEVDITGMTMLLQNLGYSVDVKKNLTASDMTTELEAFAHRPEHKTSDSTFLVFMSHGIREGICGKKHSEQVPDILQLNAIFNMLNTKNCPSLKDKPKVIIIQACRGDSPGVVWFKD
T1 sequence (P29466 317-404 limits assumed): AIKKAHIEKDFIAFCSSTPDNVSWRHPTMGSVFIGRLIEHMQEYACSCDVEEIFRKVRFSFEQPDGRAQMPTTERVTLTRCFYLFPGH
How it was run: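 ICE preincubated with inhibitor in DMSO for 15 min at room temperature, then Suc-Tyr-Val-Ala-Asp-pNA added. pNA release read at 405-603 nm for 20 min at 37 °C, rate from linear fit in mOD/min. Ki and inhibition mode from fits of rates at varying inhibitor concentrations to standard kinetic equations.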

[1] = tested on: IL-1β, human peripheral blood mononuclear cells (PBMC); test: PBMC cell assay: IL-1β assay with human PBMC or enriched adherent mononuclear cells, LPS-stimulated; format: cell-based
How it was run: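 Buffy-coat human PBMC at 6×10^6 cells/ml, or adherent monocytes enriched by 1 h adherence (2.5−3.0×10^5 cells/well), are given 5–6 compound dilutions bracketing the ICE Ki (final DMSO 0.1%) plus LPS at a final 5 ng/ml. They are incubated 16–18 hr at 37 °C, 5% CO2, and supernatant mature IL-1β is measured by ELISA, with duplicate cultures and duplicate ELISAs.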

IL-1β, human whole blood = test: Whole blood assay for IL-1β production; format: cell-based; conditions: read-out: Whole human blood IC50
How it was run: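 Human whole blood collected on Na2EDTA was treated with serially diluted compound in saline and then stimulated with LPS at 5.0 ng/ml final, for 16-18 h at 30 °C, in duplicate or triplicate. Plasma IL-1β was measured by ELISA at 1:200 dilution.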

[2] = Homo sapiens, PBMC, * = values obtained upon reassay
[3] = * = values obtained upon reassay
[4] = Homo sapiens, * = values obtained upon reassay

Row | Ki (ICE; Table 5) [nM] | IC50 (IL-1β, human whole blood; [3]) [µM] | IC50 (IL-1β, human whole blood; [4]) [µM] | Ki (ICE; Table 17) [nM] | IC50 (IL-1β, human whole blood; Homo sapiens, Table 17) [µM] | Compound | IC50 [1, 2] [nM] | IC50 [1, 3] [nM] | IC50 ([1]; Homo sapiens, PBMC, Table 17) [nM]
1 | 3.5 | 0.7 | 0.35 |  |  | COc1ccc(C(=O)N[C@H]2CCC(=O)N3CCC[C@@H](C(=O)N[C@H](C=O)CC(=O)O)N3C2=O)cc1Cl [Compound 497] | 740 |  | 
2 | 1.5 | 0.4 | 0.5 |  |  | O=C[C@H](CC(=O)O)NC(=O)[C@@H]1CCCN2C(=O)CC[C@H](NC(=O)c3ccc(O)c(Cl)c3)C(=O)N12 [Compound 498] | 560 |  | 
3 | 3.5 |  | 9 |  |  | O=C[C@H](CC(=O)O)NC(=O)[C@@H]1CCCN2C(=O)CC[C@H](NC(=O)c3ccc(OCc4ccccc4)cc3)C(=O)N12 [Compound 499] | 1200 | 800 | 
4 |  |  |  | 25 | 1.8 | O=C[C@H](CC(=O)O)NC(=O)[C@@H]1CCCN2C(=O)CC[C@H](NC(=O)C(=O)Nc3ccc(Cl)cc3)C(=O)N12 [Compound 500] |  |  | 1800
5 |  |  |  | 2.5 | 1.6 | COc1cccc(OC)c1C(=O)C(=O)N[C@H]1CCC(=O)N2CCC[C@@H](C(=O)N[C@H](C=O)CC(=O)O)N2C1=O [Compound 501] |  |  | 1800
6 | 90 |  | > 20 |  |  | O=C[C@H](CC(=O)O)NC(=O)CN1C(=O)[C@@H](NC(=O)c2ccccc2)CN(C(=O)CCc2ccccc2)c2ccccc21 [Compound 605a, (3S)-3-[(3S)-2-oxo-3-benzoylamino-5-(3-phenylpropionyl)-2,3,4,5-tetrahydro-1H-1,5-benzodiazepin-1-acetylamino-]4-oxo-butyric acid] | 2600 |  | 
7 | 125 |  | > 20 |  |  | O=C[C@H](CC(=O)O)NC(=O)CN1C(=O)[C@@H](NC(=O)c2ccccc2)CN(C(=O)NCc2ccccc2)c2ccccc21 [Compound 605p, (3S)-3-[(3S)-2-Oxo-3-benzoylamino-5-benzylaminocarbonyl-2,3,4,5-tetrahydro-1H-1,5-benzodiazepin-1-acetylamino]-4-oxo-butyric acid] | 3200 |  | 
8 | 35 |  | 19 |  |  | CC(=O)N1C[C@H](NC(=O)c2nccc3ccccc23)C(=O)N(CC(=O)N[C@H](C=O)CC(=O)O)c2ccccc21 [Compound 620] | 1000 |  | 
9 | 7.2 |  | > 20 |  |  | CC(=O)N1C[C@H](NC(=O)c2cccc3ccccc23)C(=O)N(CC(=O)N[C@H](C=O)CC(=O)O)c2ccccc21 [Compound 621] | 1300 |  | 
10 | 35 |  | > 20 |  |  | CC(=O)N1C[C@H](NC(=O)c2ccc3cc(O)ccc3c2)C(=O)N(CC(=O)N[C@H](C=O)CC(=O)O)c2ccccc21 [Compound 622] | 1300 |  | 
11 | 43 |  | 8 |  |  | CC(=O)Nc1ccc(C(=O)N[C@H]2CN(C(C)=O)c3ccccc3N(CC(=O)N[C@H](C=O)CC(=O)O)C2=O)cc1 [Compound 627] | 3250 |  | 
12 | 36 |  | > 20 |  |  | CC(=O)N1C[C@H](NC(=O)c2ccc3c(c2)OCO3)C(=O)N(CC(=O)N[C@H](C=O)CC(=O)O)c2ccccc21 [Compound 628] | 2750 |  | 
13 | 92 |  | 20 |  |  | CC(=O)N1C[C@H](NC(=O)OCc2ccccc2)C(=O)N(CC(=O)N[C@H](C=O)CC(=O)O)c2ccccc21 [Compound 633] | 5750 |  | 
14 | 55 |  | 4 |  |  | CC(=O)N1C[C@H](NC(=O)C(=O)c2ccccc2)C(=O)N(CC(=O)N[C@H](C=O)CC(=O)O)c2ccccc21 [Compound 635] | 1900 | 3400 | 
15 |  |  |  | 155 | 3.9 | COCC(=O)N1C[C@H](NCc2ccc3ccccc3c2)C(=O)N(CC(=O)N[C@H](C=O)CC(=O)O)c2ccccc21 [Compound 640, (3S)-3-[(3S)-2-Oxo-3-(2-naphthylmethylene)amino-5-methoxyacetyl-2,3,4,5-tetrahydro-1H-1,5-benzodiazepine-1-acetylamino]-4-oxo-butyric acid] |  |  | 2250
16 |  |  |  | 35 | 2.9 | COCC(=O)N1C[C@H](NC(=O)C(=O)c2ccccc2)C(=O)N(CC(=O)N[C@H](C=O)CC(=O)O)c2ccccc21 [Compound 642, (3S)-3-[(3S)-2-Oxo-3-benzoylformylamino-5-methoxyacetyl-2,3,4,5-tetrahydro-1H-1,5-benzodiazepine-1-acetylamino]-4-oxo-butyric acid] |  |  | 8000
17 |  |  |  | 30 | 6 | O=C[C@H](CC(=O)O)NC(=O)CN1C(=O)[C@@H](NC(=O)c2cccc3ccccc23)CN(C=O)c2ccccc21 [Compound 653, (3S)-3-[(3S)-2-Oxo-3-(1-naphthoyl)amino-5-formyl-2,3,4,5-tetrahydro-1H-1,5-benzodiazepine-1-acetylamino]-4-oxo-butyric acid] |  |  | 2300
18 |  |  |  | 5 | 2.2 | COc1cccc(OC)c1C(=O)C(=O)N[C@H]1CN(C(=O)CO)c2ccccc2N(CC(=O)N[C@H](C=O)CC(=O)O)C1=O [Compound 678] |  |  | 2700
19 |  |  |  | 9 | 5 | O=C[C@H](CC(=O)O)NC(=O)CN1C(=O)[C@@H](NC(=O)C(=O)c2ccccc2)CN(C(=O)CO)c2ccccc21 [Compound 681, (3S)-3-[(3S)-2-Oxo-3-benzoylformylamino-5-(2-hydroxy)acetyl-2,3,4,5-tetrahydro-1H-1,5-benzodiazepine-1-acetylamino]-4-oxo-butyric acid] |  |  | 3000
20 |  |  |  | 15 | 2.8 | COc1c(C)cc(C(=O)N[C@H]2CN(C(C)=O)c3ccccc3N(CC(=O)N[C@H](C=O)CC(=O)O)C2=O)cc1C [Compound 684, (3S)-3-[(3S)-2-Oxo-3-(3,5-dimethyl-4-methoxybenzoyl)amino-5-acetyl-2,3,4,5-tetrahydro-1H-1,5-benzodiazepine-1-acetylamino]-4-oxo-butyric acid] |  |  | 5000
21 |  |  |  | 4 | 9 | Nc1ccc(C(=O)N[C@H]2CN(C(=O)CO)c3ccccc3N(CC(=O)N[C@H](C=O)CC(=O)O)C2=O)cc1Cl [Compound 686] |  |  | 4000
22 |  |  |  | 0.8 | 2.5 | COCC(=O)N1C[C@H](NC(=O)c2cc(Cl)c(O)c(Cl)c2)C(=O)N(CC(=O)N[C@H](C=O)CC(=O)O)c2ccccc21 [Compound 689a, (3S)-3-[(3S)-2-Oxo-3-(3,5-dichloro-4-hydroxybenzoyl)amino-5-methoxyacetyl-2,3,4,5-tetrahydro-1H-1,5-benzodiazepine-1-acetylamino]-4-oxo-butyric acid] |  |  | 910
23 |  |  |  | 2.2 | 2 | COCC(=O)N1C[C@H](NC(=O)c2cc(C)c(O)c(C)c2)C(=O)N(CC(=O)N[C@H](C=O)CC(=O)O)c2ccccc21 [Compound 689b, (3S)-3-[(3S)-2-Oxo-3-(3,5-dimethyl-4-hydroxybenzoyl)amino-5-methoxyacetyl-2,3,4,5-tetrahydro-1H-1,5-benzodiazepine-1-acetylamino]-4-oxo-butyric acid] |  |  | 600

Row | Compound | Ki (ICE; Table 5) [nM] | IC50 (IL-1β, human whole blood; [3]) [µM] | IC50 (IL-1β, human whole blood; [4]) [µM] | Ki (ICE; Table 17) [nM] | IC50 (IL-1β, human whole blood; Homo sapiens, Table 17) [µM] | IC50 [1, 2] [nM] | IC50 [1, 3] [nM] | IC50 ([1]; Homo sapiens, PBMC, Table 17) [nM]
24 | CC(=O)OCC(=O)N1C[C@H](NC(=O)c2ccccc2)C(=O)N(CC(=O)N[C@H](C=O)CC(=O)O)c2ccccc21 [Compound 683, (3S)-3-[(3S)-2-Oxo-3-benzoylamino-5-(2-acetoxy)acetyl-2,3,4,5-tetrahydro-1H-1,5-benzodiazepine-1-acetylamino]-4-oxo-butyric acid] |  |  |  | 400 | > 20 |  |  | > 20000

From patent US20120165319A1, “INHIBITORS OF INTERLEUKIN-1 BETA CONVERTING ENZYME” (VERTEX PHARMACEUTICALS INCORPORATED, priority 1995, published 2012)
